Laboratory results reported in ChEMBL document CHEMBL1909046, “DrugMatrix in vitro pharmacology data”.

Assays:
[1] = DRUGMATRIX: Atrial Natriuretic Factor (ANF) radioligand binding (ligand: [125I] ANF (rat)); format: cell membranes, Cavia porcellus, Dunkin-Hartley, Adrenal gland, Membrane; settings: Not Active = under 50% inhibition at 10 µM
[2] = biological target: Protein kinase C alpha type (Homo sapiens, UniProt P17252); format: cell-based; settings: sf9;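 note: inhibition of PKCalpha kinase activity measured in an enzyme assay with histone as the phosphorylation substrate; in other assays of this panel Not Active means under 50% inhibition at 10 µM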
[3] = DRUGMATRIX: Platelet-Derived Growth Factor (PDGF) radioligand binding (ligand: [125I] PDGF); format: cell-based; settings: nih3t3; Not Active = under 50% inhibition at 10 µM
[4] = biological target: Mitogen-activated protein kinase 1 (Homo sapiens, UniProt P28482); assay: DRUGMATRIX: Protein Serine/Threonine Kinase, ERK2 enzyme inhibition (substrate: Myelin Basic Protein); design: species or system Escherichia coli; settings: Not Active = under 50% inhibition at 10 µM
Chain of Mitogen-activated protein kinase 1 (P28482 whole entry): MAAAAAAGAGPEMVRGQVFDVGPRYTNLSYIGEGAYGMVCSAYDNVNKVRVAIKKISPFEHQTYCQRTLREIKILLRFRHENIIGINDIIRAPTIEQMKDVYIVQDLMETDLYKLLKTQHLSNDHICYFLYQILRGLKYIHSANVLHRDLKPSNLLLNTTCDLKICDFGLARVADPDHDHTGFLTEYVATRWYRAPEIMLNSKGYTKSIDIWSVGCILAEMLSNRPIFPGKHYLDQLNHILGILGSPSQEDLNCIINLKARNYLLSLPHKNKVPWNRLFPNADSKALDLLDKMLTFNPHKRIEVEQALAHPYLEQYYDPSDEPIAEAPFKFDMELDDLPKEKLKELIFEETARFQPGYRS

[5] = biological target: C-C chemokine receptor type 2 (Homo sapiens, UniProt P41597); format: cell membranes, CHO-K1, Membrane; settings: cho-k1; note: in other assays of this panel Not Active means under 50% inhibition at 10 µM
Chain of C-C chemokine receptor type 2 (P41597 whole entry): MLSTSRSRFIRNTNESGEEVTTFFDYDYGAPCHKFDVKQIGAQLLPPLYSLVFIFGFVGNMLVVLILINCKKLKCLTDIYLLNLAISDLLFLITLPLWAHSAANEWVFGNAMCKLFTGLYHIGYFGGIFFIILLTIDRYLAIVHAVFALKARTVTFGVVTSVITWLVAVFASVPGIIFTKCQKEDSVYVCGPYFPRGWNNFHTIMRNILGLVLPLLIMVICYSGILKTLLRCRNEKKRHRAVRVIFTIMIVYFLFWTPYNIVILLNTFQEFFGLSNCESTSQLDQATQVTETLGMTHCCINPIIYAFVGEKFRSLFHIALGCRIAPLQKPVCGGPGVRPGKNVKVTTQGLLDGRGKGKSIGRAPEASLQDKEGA

[6] = DRUGMATRIX: Glutamate, NMDA, Phencyclidine radioligand binding (ligand: [3H] TCP); format: cell membranes, Rattus norvegicus, Wistar, Cerebral cortex, Membrane; settings: Not Active = under 50% inhibition at 10 µM
[7] = biological target: Delta-type opioid receptor (Homo sapiens, UniProt P41143); format: cell membranes, HEK293, Membrane; settings: hek293; note: in other assays of this panel Not Active means under 50% inhibition at 10 µM
Chain of Delta-type opioid receptor (P41143 whole entry): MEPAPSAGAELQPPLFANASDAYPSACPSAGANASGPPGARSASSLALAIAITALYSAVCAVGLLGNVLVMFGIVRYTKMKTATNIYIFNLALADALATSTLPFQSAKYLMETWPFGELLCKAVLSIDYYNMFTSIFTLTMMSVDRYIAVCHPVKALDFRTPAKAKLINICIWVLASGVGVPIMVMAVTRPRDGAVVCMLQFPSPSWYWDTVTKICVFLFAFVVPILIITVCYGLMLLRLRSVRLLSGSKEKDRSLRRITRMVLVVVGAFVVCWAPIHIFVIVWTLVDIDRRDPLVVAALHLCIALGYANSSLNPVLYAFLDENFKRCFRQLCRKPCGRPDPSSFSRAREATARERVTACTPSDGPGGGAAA

[8] = biological target: Kappa-type opioid receptor (Homo sapiens, UniProt P41145); assay: DRUGMATRIX: Opiate kappa (OP2, KOP) radioligand binding (ligand: [3H] Diprenorphine); format: cell membranes, HEK293, Membrane; settings: hek293; Not Active = under 50% inhibition at 10 µM
Chain of Kappa-type opioid receptor (P41145 whole entry): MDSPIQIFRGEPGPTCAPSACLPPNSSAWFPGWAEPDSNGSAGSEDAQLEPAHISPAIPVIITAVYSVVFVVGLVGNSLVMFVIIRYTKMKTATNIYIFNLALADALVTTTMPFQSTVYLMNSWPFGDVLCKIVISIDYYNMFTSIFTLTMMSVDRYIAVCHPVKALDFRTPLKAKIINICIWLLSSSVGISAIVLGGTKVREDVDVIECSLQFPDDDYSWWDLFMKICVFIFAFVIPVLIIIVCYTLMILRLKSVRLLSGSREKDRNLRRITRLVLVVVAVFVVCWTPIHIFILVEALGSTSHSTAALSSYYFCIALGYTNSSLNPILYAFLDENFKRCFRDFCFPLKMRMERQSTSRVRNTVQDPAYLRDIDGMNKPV

Estrogen receptor beta = Estrogen receptor beta (Homo sapiens, UniProt Q92731); settings: sf9; note: in other assays of this panel Not Active means under 50% inhibition at 10 µM
Chain of Estrogen receptor beta (Q92731 whole entry): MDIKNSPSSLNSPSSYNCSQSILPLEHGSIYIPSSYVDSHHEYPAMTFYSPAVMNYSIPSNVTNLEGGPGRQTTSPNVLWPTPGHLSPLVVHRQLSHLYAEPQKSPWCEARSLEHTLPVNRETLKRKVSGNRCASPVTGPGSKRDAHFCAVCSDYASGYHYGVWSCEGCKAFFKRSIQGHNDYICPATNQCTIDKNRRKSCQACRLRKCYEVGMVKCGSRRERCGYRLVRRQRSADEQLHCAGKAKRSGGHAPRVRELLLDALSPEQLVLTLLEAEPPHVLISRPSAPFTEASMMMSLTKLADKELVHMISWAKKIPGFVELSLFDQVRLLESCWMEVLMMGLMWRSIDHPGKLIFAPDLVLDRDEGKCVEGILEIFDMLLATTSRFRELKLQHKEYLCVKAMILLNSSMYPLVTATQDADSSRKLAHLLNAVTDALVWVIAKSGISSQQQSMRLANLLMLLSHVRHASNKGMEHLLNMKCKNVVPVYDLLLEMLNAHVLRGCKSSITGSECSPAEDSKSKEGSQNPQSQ

[9] = biological target: Mitogen-activated protein kinase 14 (Homo sapiens, UniProt Q16539); design: species or system Escherichia coli
Chain of Mitogen-activated protein kinase 14 (Q16539 whole entry): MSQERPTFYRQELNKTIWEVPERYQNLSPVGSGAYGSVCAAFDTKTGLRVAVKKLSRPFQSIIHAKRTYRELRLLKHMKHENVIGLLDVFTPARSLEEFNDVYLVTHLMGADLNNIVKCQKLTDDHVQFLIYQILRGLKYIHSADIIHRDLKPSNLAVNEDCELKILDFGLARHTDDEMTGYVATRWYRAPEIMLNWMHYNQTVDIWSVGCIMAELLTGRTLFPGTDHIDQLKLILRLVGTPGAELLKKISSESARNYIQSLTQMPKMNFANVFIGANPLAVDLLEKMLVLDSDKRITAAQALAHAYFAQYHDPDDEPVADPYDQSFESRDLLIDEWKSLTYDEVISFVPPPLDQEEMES

Glycine receptor = Glycine receptor (Rattus norvegicus, UniProt P22771+P24524+P07727+P20781); format: cell membranes, Wistar, Spinal cord, Membrane; note: in other assays of this panel Not Active means under 50% inhibition at 10 µM

Cc1onc(-c2ccccc2)c1-c1ccc(S(N)(=O)=O)cc1 [VALDECOXIB]
Not Active: IC50 [1] | Ki [1] | IC50 [2] | IC50 [3] | Ki [3] | IC50 [4] | IC50 [5] | IC50 [6] | Ki [6] | IC50 [7] | IC50 [8] | IC50 (Estrogen receptor beta) | IC50 [9] | IC50 (Glycine receptor)

CC[C@]1(O)C[C@@H]2CN(CCc3c([nH]c4ccccc34)[C@@](C(=O)OC)(c3cc4c(cc3OC)N(C)[C@H]3[C@@](O)(C(=O)OC)[C@H](OC(C)=O)[C@]5(CC)C=CCN6CC[C@]43[C@@H]65)C2)C1 [VINBLASTINE]
Not Active: IC50 [1] | Ki [1] | IC50 [2] | IC50 [3] | Ki [3] | IC50 [4] | IC50 [5] | IC50 [6] | Ki [6] | IC50 [7] | IC50 [8] | IC50 (Estrogen receptor beta) | IC50 [9] | IC50 (Glycine receptor)

C[C@@H](N)[C@H]1CC[C@H](C(=O)Nc2ccncc2)CC1 [Y-27632]
Not Active: IC50 [1] | Ki [1] | IC50 [2] | IC50 [3] | Ki [3] | IC50 [4] | IC50 [5] | IC50 [6] | Ki [6] | IC50 [7] | IC50 [8] | IC50 (Estrogen receptor beta) | IC50 [9] | IC50 (Glycine receptor)
